Measured values published in PubChem BioAssay AID248 (DTP/NCI, 2004).
Values joined by “and” are separate entries in the source; they are usually repeats but may differ in a detail not shown here. Equal entries are not always repeated. Inconclusive results and toxic doses are left out. Rule as the data show it: active = T/C of 150% or more; inactive = T/C below 125%.

System: L1210 leukemia ip in BDF1 mice, survival T/C
Test: NCI In Vivo Anticancer Drug Screen. Data for tumor model L1210 Leukemia (intraperitoneal) in B6D2F1 (BDF1) mice
Details: endpoint: mean survival time, higher = longer survival
Method in brief: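 Tumor cells were implanted, animals were treated, and survival was followed. The result divides the treated measurement by the vehicle-control measurement.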

[1] = dose: 100.0 mg/kg/injection, schedule: Q01DX001 (ip), vehicle: Klucel (hydroxypropylcellulose) (HPC)
[2] = dose: 400.0 mg/kg/injection, schedule: Q01DX001 (ip), vehicle: Klucel (hydroxypropylcellulose) (HPC)
[3] = dose: 25.0 mg/kg/injection, schedule: Q04DX003 (ip), vehicle: Klucel (hydroxypropylcellulose) (HPC)
[4] = dose: 100.0 mg/kg/injection, schedule: Q04DX003 (ip), vehicle: Klucel (hydroxypropylcellulose) (HPC)
[5] = dose: 100.0 mg/kg/injection, schedule: Q01DX009 (ip), vehicle: Klucel (hydroxypropylcellulose) (HPC)
[6] = dose: 200.0 mg/kg/injection, schedule: Q01DX009 (ip), vehicle: Klucel (hydroxypropylcellulose) (HPC)
[7] = dose: 400.0 mg/kg/injection, schedule: Q01DX009 (ip), vehicle: Klucel (hydroxypropylcellulose) (HPC)
[8] = dose: 25.0 mg/kg/injection, schedule: Q01DX001 (ip), vehicle: saline with Tween-80
[9] = dose: 50.0 mg/kg/injection, schedule: Q01DX001 (ip), vehicle: saline with Tween-80
[10] = dose: 100.0 mg/kg/injection, schedule: Q01DX001 (ip), vehicle: saline with Tween-80
[11] = dose: 100.0 mg/kg/injection, schedule: Q01DX001 (ip), vehicle: saline
[12] = dose: 200.0 mg/kg/injection, schedule: Q01DX001 (ip), vehicle: saline
[13] = dose: 400.0 mg/kg/injection, schedule: Q01DX001 (ip), vehicle: saline
[14] = dose: 25.0 mg/kg/injection, schedule: Q01DX001 (ip), vehicle: Klucel (hydroxypropylcellulose) (HPC)
[15] = dose: 50.0 mg/kg/injection, schedule: Q01DX001 (ip), vehicle: Klucel (hydroxypropylcellulose) (HPC)
[16] = dose: 100.0 mg/kg/injection, schedule: Q01DX009 (ip), vehicle: saline with Tween-80
[17] = dose: 100.0 mg/kg/injection, schedule: Q04DX003 (ip), vehicle: saline with Tween-80
[18] = dose: 200.0 mg/kg/injection, schedule: Q01DX009 (ip), vehicle: saline with Tween-80
[19] = dose: 200.0 mg/kg/injection, schedule: Q04DX003 (ip), vehicle: saline with Tween-80
[20] = dose: 400.0 mg/kg/injection, schedule: Q01DX009 (ip), vehicle: saline with Tween-80
[21] = dose: 400.0 mg/kg/injection, schedule: Q04DX003 (ip), vehicle: saline with Tween-80

Measured: T/C

Cc1cc2c(cc1C)C1(c3ccc(Cl)cc3)OC2(c2ccc(Cl)cc2)C2C(=O)OC(=O)C21 (stereo not drawn)
inactive: [1] 94 % of control | dose: 200.0 mg/kg/injection, schedule: Q01DX001 (ip), vehicle: Klucel (hydroxypropylcellulose) (HPC) 92 % of control | [2] 97 % of control

CC(Br)C(=O)c1cccc2ccccc12 (stereo not drawn)
inactive: [3] 90 % of control | dose: 50.0 mg/kg/injection, schedule: Q04DX003 (ip), vehicle: Klucel (hydroxypropylcellulose) (HPC) 90 % of control | [4] 97 % of control and 98 % of control

CN(C)c1ccc(/C=C/c2nc3ccccc3o2)cc1
inactive: [5] 95 % of control | [6] 95 % of control | [7] 94 % of control

CC[C@@H]1C[C@H]2CC3c4[nH]c5ccc(OC)cc5c4CCN(C2)C31
inactive: [8] 96 % of control | [9] 96 % of control | [10] 93 % of control and 109 % of control

CCOC(=O)c1cc[n+](C)c2ccccc12
inactive: dose: 9.37 mg/kg/injection, schedule: Q01DX009 (ip), vehicle: acetone 101 % of control | dose: 18.75 mg/kg/injection, schedule: Q01DX009 (ip), vehicle: acetone 95 % of control | dose: 37.5 mg/kg/injection, schedule: Q01DX009 (ip), vehicle: acetone 98 % of control | dose: 37.5 mg/kg/injection, schedule: Q04DX003 (ip), vehicle: acetone 92 % of control | dose: 75.0 mg/kg/injection, schedule: Q04DX003 (ip), vehicle: acetone 89 % of control | dose: 150.0 mg/kg/injection, schedule: Q01DX001 (ip), vehicle: acetone 89 % of control

C#CCNc1c(C)cccc1C
inactive: [5] 107 % of control | [4] 98 % of control | [6] 102 % of control | dose: 200.0 mg/kg/injection, schedule: Q04DX003 (ip), vehicle: Klucel (hydroxypropylcellulose) (HPC) 97 % of control

COC(=O)C1C2C(C)=CC(O)(CC2(C)C)C1C(=O)OC (stereo not drawn)
inactive: [11] 95 % of control | [12] 95 % of control | [13] 101 % of control

CCCCCCCCCCCCCCCCCCNC(=O)Nc1cccc(NC(C)=O)c1
inactive: [5] 91 % of control | [6] 88 % of control | [7] 98 % of control

[N-]=[N+]=C1N=C(Cl)N=C1c1ncn[nH]1
inactive: [14] 97 % of control | [15] 108 % of control | [1] 102 % of control and 112 % of control | [2] 112 % of control

O=C(CN1C(=O)C(=O)O/C1=C/c1ccccc1)OCc1ccccc1
inactive: [5] 105 % of control | [6] 103 % of control

Nc1nc(-c2cccc(NC(=O)c3ccc(S(=O)(=O)F)cc3)c2)nc2[nH]ncc12
inactive: [14] 86 % of control | [15] 94 % of control | [1] 86 % of control

CC1CCC2(C(=O)OC3OC(COC4OC(CO)C(OC5OC(C)C(O)C(O)C5O)C(O)C4O)C(O)C(O)C3O)CCC3(C)C(=CCC4C5(C)CC(O)C(O)C(C)(CO)C5CCC43C)C2C1C (stereo not drawn)
inactive: [10] 98 % of control | dose: 200.0 mg/kg/injection, schedule: Q01DX001 (ip), vehicle: saline with Tween-80 98 % of control | dose: 400.0 mg/kg/injection, schedule: Q01DX001 (ip), vehicle: saline with Tween-80 97 % of control

O=C(O)c1ccc(Cl)cc1Cl
inactive: dose: 100.0 mg/kg/injection, schedule: Q04DX002 (ip), vehicle: gum acacia 88 % of control | dose: 200.0 mg/kg/injection, schedule: Q04DX002 (ip), vehicle: gum acacia 98 % of control | dose: 400.0 mg/kg/injection, schedule: Q04DX002 (ip), vehicle: gum acacia 100 % of control

c1ccc2c(-c3nc4ccccc4[nH]3)cccc2c1
inactive: [16] 91 % of control | [17] 93 % of control | [18] 96 % of control | [19] 93 % of control | [20] 93 % of control | [21] 102 % of control

O=C(NCCCN1CC1)C(=O)Nc1ccccc1
inactive: dose: 12.5 mg/kg/injection, schedule: Q04DX003 (ip), vehicle: Klucel (hydroxypropylcellulose) (HPC) 92 % of control | [3] 101 % of control

Ic1ccccc1CNCCc1ccccc1
inactive: dose: 75.0 mg/kg/injection, schedule: Q01DX001 (ip), vehicle: other 93 % of control | dose: 150.0 mg/kg/injection, schedule: Q01DX001 (ip), vehicle: other 96 % of control | dose: 300.0 mg/kg/injection, schedule: Q01DX001 (ip), vehicle: other 96 % of control

O=C1C=C(c2ccccc2)C(c2ccccc2)C1=O (stereo not drawn)
inactive: dose: 50.0 mg/kg/injection, schedule: Q04DX002 (ip), vehicle: Klucel (hydroxypropylcellulose) (HPC) 106 % of control | dose: 100.0 mg/kg/injection, schedule: Q04DX002 (ip), vehicle: Klucel (hydroxypropylcellulose) (HPC) 98 % of control | dose: 200.0 mg/kg/injection, schedule: Q04DX002 (ip), vehicle: Klucel (hydroxypropylcellulose) (HPC) 95 % of control and 111 % of control | dose: 400.0 mg/kg/injection, schedule: Q04DX002 (ip), vehicle: Klucel (hydroxypropylcellulose) (HPC) 93 % of control

c1ccc([Si](c2ccccc2)(c2ccccc2)c2ccc3ccccc3c2)cc1
inactive: dose: 25.6 mg/kg/injection, schedule: Q04DX002 (ip), vehicle: saline with Tween-80 87 % of control | dose: 64.0 mg/kg/injection, schedule: Q04DX002 (ip), vehicle: saline with Tween-80 90 % of control | [17] 90 % of control | dose: 160.0 mg/kg/injection, schedule: Q04DX002 (ip), vehicle: saline with Tween-80 90 % of control | [19] 88 % of control | dose: 400.0 mg/kg/injection, schedule: Q04DX002 (ip), vehicle: saline with Tween-80 90 % of control | [21] 87 % of control

NNc1cc(S(=O)(=O)O)cc(C(=O)O)c1O
inactive: [11] 107 % of control | dose: 100.0 mg/kg/injection, schedule: Q01DX009 (ip), vehicle: saline 100 % of control and 103 % of control | dose: 100.0 mg/kg/injection, schedule: Q04DX002 (ip), vehicle: saline 97 % of control and 90 % of control | [12] 102 % of control | dose: 200.0 mg/kg/injection, schedule: Q01DX009 (ip), vehicle: saline 110 % of control and 89 % of control | dose: 200.0 mg/kg/injection, schedule: Q04DX002 (ip), vehicle: saline 100 % of control and 90 % of control | [13] 102 % of control | dose: 400.0 mg/kg/injection, schedule: Q01DX009 (ip), vehicle: saline 87 % of control | dose: 400.0 mg/kg/injection, schedule: Q04DX002 (ip), vehicle: saline 108 % of control and 90 % of control

O=C(NC12CC3CC(CC(C3)C1)C2)C(O)C(O)C(O)C(O)CO (stereo not drawn)
inactive: [11] 110 % of control | [12] 100 % of control | [13] 100 % of control

O=c1/c(=C/c2ccccc2)c2cccc3cccc1c32
inactive: [8] 97 % of control | [9] 93 % of control | [10] 97 % of control

OC(c1ccccc1)C(c1ccccc1)N1CC1 (stereo not drawn)
inactive: dose: 75.0 mg/kg/injection, schedule: Q01DX001 (ip), vehicle: carboxymethylcellulose (CMC) 93 % of control | dose: 150.0 mg/kg/injection, schedule: Q01DX001 (ip), vehicle: carboxymethylcellulose (CMC) 92 % of control | dose: 300.0 mg/kg/injection, schedule: Q01DX001 (ip), vehicle: carboxymethylcellulose (CMC) 92 % of control

NC(=O)NN=C1CCCCC1
inactive: dose: 12.5 mg/kg/injection, schedule: Q01DX009 (ip), vehicle: Klucel (hydroxypropylcellulose) (HPC) 97 % of control | dose: 25.0 mg/kg/injection, schedule: Q01DX009 (ip), vehicle: Klucel (hydroxypropylcellulose) (HPC) 97 % of control | dose: 50.0 mg/kg/injection, schedule: Q01DX009 (ip), vehicle: Klucel (hydroxypropylcellulose) (HPC) 102 % of control | dose: 70.0 mg/kg/injection, schedule: Q01DX009 (ip), vehicle: Klucel (hydroxypropylcellulose) (HPC) 87 % of control

OC(Cc1nccc2ccccc12)(C(F)(F)F)C(F)(F)F
inactive: [16] 93 % of control | [17] 100 % of control | [18] 93 % of control | [19] 101 % of control | [20] 94 % of control | [21] 100 % of control
